Several values for one entry are separate records, joined by “and”; a condition that tells them apart may be missing. Identical values can stand only once. Numbers after ± are expanded uncertainties.
Assays:
[1] = Crystal; for vapor or sublimation pressure: Calculated from knudsen effusion weight loss; for Normal melting temperature: DTA
[2] = Molar enthalpy of transition or fusion; conditions: Crystal; DSC

O=c1c2ccccc2oc2ccccc12 [9H-xanthen-9-one]
[1]
Conditions	vapor or sublimation pressure
342.22 K	0.00013 ± 2.1e-05 kPa and 0.000132 ± 2.1e-05 kPa and 0.000129 ± 2.1e-05 kPa
344.15 K	0.000163 ± 2.1e-05 kPa and 0.00016 ± 2.1e-05 kPa and 0.000157 ± 2.1e-05 kPa
346.26 K	0.000197 ± 2.1e-05 kPa and 0.000201 ± 2.1e-05 kPa and 0.000196 ± 2.1e-05 kPa
348.26 K	0.000238 ± 2.2e-05 kPa and 0.00024 ± 2.2e-05 kPa and 0.000245 ± 2.2e-05 kPa
350.26 K	0.000301 ± 2.3e-05 kPa and 0.000303 ± 2.3e-05 kPa and 0.000295 ± 2.3e-05 kPa
354.2 K	0.000451 ± 2.6e-05 kPa and 0.000452 ± 2.6e-05 kPa and 0.000434 ± 2.5e-05 kPa
356.21 K	0.000553 ± 2.8e-05 kPa and 0.000546 ± 2.8e-05 kPa and 0.000529 ± 2.7e-05 kPa
358.26 K	0.000674 ± 3.1e-05 kPa and 0.000667 ± 3.1e-05 kPa and 0.000658 ± 3.1e-05 kPa
360.15 K	0.000814 ± 3.5e-05 kPa and 0.000799 ± 3.5e-05 kPa and 0.000781 ± 3.4e-05 kPa
362.22 K	0.000989 ± 4e-05 kPa and 0.000954 ± 3.9e-05 kPa

Conditions	Molar enthalpy of transition or fusion [kcal/mol]	Normal melting temperature [°C]
[1]	–	175.2 ± 0.9
[2]	6.36 ± 0.167	–

O=C1c2ccccc2Cc2ccccc21 [9(10H)-anthracenone]
[1]
Conditions	vapor or sublimation pressure
346.15 K	0.000131 ± 2.1e-05 kPa and 0.000128 ± 2.1e-05 kPa
348.14 K	0.000162 ± 2.1e-05 kPa and 0.000156 ± 2.1e-05 kPa
351.13 K	0.000223 ± 2.2e-05 kPa and 0.000217 ± 2.1e-05 kPa and 0.000221 ± 2.1e-05 kPa
354.18 K	0.000299 ± 2.3e-05 kPa and 0.00029 ± 2.2e-05 kPa and 0.000307 ± 2.3e-05 kPa
355.68 K	0.000359 ± 2.4e-05 kPa and 0.000354 ± 2.4e-05 kPa and 0.000348 ± 2.4e-05 kPa
357.19 K	0.00041 ± 2.5e-05 kPa and 0.000405 ± 2.5e-05 kPa and 0.000396 ± 2.4e-05 kPa
360.15 K	0.000558 ± 2.8e-05 kPa and 0.000553 ± 2.8e-05 kPa and 0.000533 ± 2.8e-05 kPa
363.14 K	0.000744 ± 3.3e-05 kPa and 0.000727 ± 3.3e-05 kPa and 0.0007 ± 3.2e-05 kPa
365.14 K	0.000895 ± 3.7e-05 kPa and 0.000879 ± 3.7e-05 kPa and 0.00084 ± 3.6e-05 kPa

Conditions	Molar enthalpy of transition or fusion [kcal/mol]	Normal melting temperature [°C]
[1]	–	156.4 ± 0.5
[2]	5.35 ± 0.143	–

O=c1c2ccccc2sc2ccccc12 [thioxanthone]
[1]
Conditions	vapor or sublimation pressure
369.12 K	0.000187 ± 2.1e-05 kPa and 0.000186 ± 2.1e-05 kPa and 0.000178 ± 2.1e-05 kPa
371.2 K	0.000232 ± 2.2e-05 kPa and 0.000226 ± 2.2e-05 kPa and 0.000222 ± 2.1e-05 kPa
373.26 K	0.000284 ± 2.2e-05 kPa and 0.000274 ± 2.2e-05 kPa and 0.00027 ± 2.2e-05 kPa
375.12 K	0.000335 ± 2.3e-05 kPa and 0.00032 ± 2.3e-05 kPa and 0.000321 ± 2.3e-05 kPa
377.11 K	0.000413 ± 2.5e-05 kPa and 0.000405 ± 2.5e-05 kPa and 0.000383 ± 2.4e-05 kPa
379.2 K	0.000496 ± 2.7e-05 kPa and 0.000495 ± 2.7e-05 kPa and 0.00048 ± 2.6e-05 kPa
381.27 K	0.000611 ± 2.9e-05 kPa and 0.000592 ± 2.9e-05 kPa and 0.000579 ± 2.9e-05 kPa
383.12 K	0.000711 ± 3.2e-05 kPa and 0.000701 ± 3.2e-05 kPa and 0.000664 ± 3.1e-05 kPa
385.27 K	0.000863 ± 3.7e-05 kPa and 0.00082 ± 3.5e-05 kPa and 0.00081 ± 3.5e-05 kPa
387.2 K	0.001018 ± 7.9e-05 kPa and 0.001001 ± 7.8e-05 kPa and 0.000962 ± 3.9e-05 kPa

Conditions	Molar enthalpy of transition or fusion [kcal/mol]	Normal melting temperature [°C]
[1]	–	213.5 ± 0.9
[2]	6.79 ± 0.143	–

O=C1c2ccccc2C(=O)c2ccccc21 [9,10(9H,10H)-anthracenedione]
[1]
Conditions	vapor or sublimation pressure
377.06 K	0.000173 ± 2.1e-05 kPa and 0.000164 ± 2.1e-05 kPa
379.08 K	0.00021 ± 2.1e-05 kPa and 0.0002 ± 2.1e-05 kPa
381.26 K	0.00025 ± 2.2e-05 kPa and 0.000246 ± 2.2e-05 kPa
383.26 K	0.000299 ± 2.3e-05 kPa and 0.000302 ± 2.3e-05 kPa
385.26 K	0.000359 ± 2.4e-05 kPa and 0.000352 ± 2.4e-05 kPa
391.26 K	0.000618 ± 3e-05 kPa
393.08 K	0.000743 ± 3.3e-05 kPa and 0.000716 ± 3.2e-05 kPa
395.03 K	0.000886 ± 3.7e-05 kPa

Conditions	Molar enthalpy of transition or fusion [kcal/mol]	Normal melting temperature [°C]
[1]	–	283.6 ± 0.5
[2]	8.68 ± 0.222	–

c1ccc2c(c1)Sc1ccccc1S2 [thianthrene]
[1]
Conditions	vapor or sublimation pressure
344.27 K	0.000161 ± 2.1e-05 kPa and 0.000163 ± 2.1e-05 kPa
346.12 K	0.0002 ± 2.1e-05 kPa and 0.000198 ± 2.1e-05 kPa and 0.000197 ± 2.1e-05 kPa
348.1 K	0.000246 ± 2.2e-05 kPa and 0.000243 ± 2.2e-05 kPa and 0.000239 ± 2.2e-05 kPa
350.26 K	0.000301 ± 2.3e-05 kPa and 0.000299 ± 2.3e-05 kPa
352.11 K	0.00037 ± 2.4e-05 kPa and 0.000368 ± 2.4e-05 kPa and 0.000362 ± 2.4e-05 kPa
354.1 K	0.000447 ± 2.6e-05 kPa and 0.000446 ± 2.5e-05 kPa and 0.000439 ± 2.5e-05 kPa
356.26 K	0.000549 ± 2.8e-05 kPa and 0.00056 ± 2.8e-05 kPa and 0.000555 ± 2.8e-05 kPa
358.1 K	0.00068 ± 3.1e-05 kPa and 0.000687 ± 3.2e-05 kPa and 0.000669 ± 3.1e-05 kPa
362.05 K	0.000992 ± 4e-05 kPa and 0.000995 ± 4.1e-05 kPa and 0.000973 ± 4e-05 kPa
364.06 K	0.001197 ± 9.6e-05 kPa and 0.001196 ± 9.6e-05 kPa and 0.00117 ± 9.4e-05 kPa

— the NIST ThermoML archive (doi:10.1021/je100850z)
